Source: patent US20040137454A1, “Assay for drug-induced recoding” (priority 2004, published 2004)

Assays:
endogenous antizyme = test: Endogenous antizyme levels measured as ODC-inhibitory activity in HEK293 cell extracts; assay type: cell-based, human; details: HEK293 cells, 24 hours; for Antizyme: 1 mM aminoguanidine
Experimental: The endogenous antizyme levels were also measured for comparison. HEK293 cells were plated in 10 cm dishes with 10 ml of the growth media as described above at a concentration of 3×10^5 cells/ml and incubated for 24 hours. The medium was replaced with fresh medium supplemented with 1 mM aminoguanidine and various concentrations of either putrescine, spermidine, or spermine. The dishes were incubated further for 24 hours, placed on ice, washed with phosphate buffered saline twice, drained completely, and cells were disrupted by 3 freeze/thaw cycles. Then 0.5 ml of cell extract buffer (25 mM Tris-HCl, pH 7.2, 1 mM dithiothreitol, 1 mM EDTA, and 0.01% Tween 80) was added, and the cell suspension was centrifuged at 15,000 rpm for 30 minutes at 4° C. Antizyme activities were measured as ODC-inhibitory activities that could be reversed by excess antizyme inhibitor. Cell extracts (40 μl) were mixed with 2.0 units of mouse kidney ODC in duplicate. To one set, 0.1 μg of GST-antizyme inhibitor protein was added. ODC activity of each mixture was assayed by measuring the release of ^14CO2 from L-[1-^14C] ornithine (as described in I. P. Ivanov et al., Discovery of a Spermatogenesis Stage-specific Ornithine Decarboxylase Antizyme: Antizyme 3, 97 Proc. Nat'l Acad. Sci. USA 97, 4808-4813 (2000); I. P. Ivanov et al., Conservation of Polyamine Regulation by Translational Frameshifting from Yeast to Mammals, 19 EMBO J. 1907-1917 (2000); S. Matsufuji et al., Reading Two Bases Twice: Mammalian Antizyme Frameshifting in Yeast, 15 EMBO J. 1360-1370 (19%)), and expressed as specific activities. Protein concentrations of the extracts were determined with the BCA protein assay kit (Pierce) using bovine serum albumin as a standard. One unit of ODC and antizyme was defined as the activity releasing […] CO2 per hour and the activity inhibiting 1 unit of ODC, respectively.

[1] = system: antizyme 1 polyamine-regulated frameshifting sequence; test: Dual luciferase reporter assay of antizyme 1 +1 frameshifting (p2Lucaz1) in transfected cells; assay type: cell-based, human; details: for Maximal frameshifting stimulation: HEK293, standard growth conditions without DFMO, 0.01-0.1 mM spermine, 0.1-2 mM spermidine, 0.5-2 mM putrescine; for Fold increase of antizyme 1 frameshifting upon polyamine addition to DFMO pre-treated cells: HEK293 pre-treated with DFMO, 0.1 mM spermine, 2 mM spermidine, 2 mM putrescine; for Effect on amount of frameshifting, p2Lucaz1: cultured mammalian cells, controls 2.5 mM DFMO
From the text: Referring now to FIG. 2, the construction of illustrative embodiments of the dual reporter assay constructs is depicted. These illustrative embodiments use the renilla and firefly luciferases as first and second reporters, respectively. […] Pat. […] The shift site (TCCT), corresponding to UCCU in the corresponding mRNA, is present at nucleotides 55-58 of each of these sequences. […] Zero frame (“0 frame”) controls for each construct were identical except that the first T of the stop codon following the shift site was deleted. It will be appreciated that the DNA constructs disclosed herein are merely examples of dual reporter constructs comprising two reporter-encoding DNA segments separated by a cloning site containing a polyamine-regulated frameshifting sequence, and that all such constructs are included within the scope of the present invention. Cultured mammalian cells are transfected with the dual construct according to method well known in the art. Parallel cell lines are transfected with the +1 reading frame and 0 reading frame construct according to methods well known in the art. The cells are then incubated under varying conditions to test the effect of such conditions on the polyamine regulation. Cells are then lysed and the luciferase activity measured by light emission after injection of luminescence substrate, as is well known in the art. […] This provides a quantitative assay for measuring the polyamine-induced recoding. […] Similarly, mouse germ line (GC-2) cells were obtained from the American Tissue Type culture Collection (Manassas, Va.). […] All cells were incubated at 37° C. in an atmosphere of 5% CO2 All media and antibiotics were obtained from Invitrogen Life Technologies (Carlsbad, Calif.), and all sera were obtained from HyClone Inc. (Logan Utah). The cells were transfected with the dual luciferase constructs p2Lucaz1 and p2Lucaz2 using LIPOFECTIN reagent (Invitrogen Life Technologies). LIPOFECTIN reagent is a 1:1 (w/w) liposome formulation of the cationic lipid […],-trimethylammonium chloride (DOTMA), and dioleoyl phosphotidylethanolamine (DOPE) in membrane filtered water. Cells (0.3×10^5) were plated in 48-well, treated tissue culture plates and grown for 48 hours as described above. DFMO (2.5 mM) was added to half the plates of each cell line to inhibit polyamine synthesis. […] Cells were lysed using passive lysis buffer and luciferase activity was determined using the Dual Luciferase reporter assay (Promega, Madison, Wis.) as described in Grentzmann, supra. For all reactions, light emission was measure between 2 and 12 seconds after 100 μl of luminescence substrate was injected.

[2] = system: antizyme 1 and 2 frameshifting sequences with upstream stimulatory sequences deleted; test: Dual luciferase frameshifting assay, upstream deletion constructs p2Lucaz1usdel and p2Lucaz2usdel; assay type: cell-based, human; details: 1 mM spermidine added to DFMO (2.5 mM) treated HEK293 cells
From the text: (§1) Referring now to FIG. 2, the construction of illustrative embodiments of the dual reporter assay constructs is depicted. These illustrative embodiments use the renilla and firefly luciferases as first and second reporters, respectively. The sequences referred to herein as SEQ ID NO:1 and SEQ ID NO:2, which comprise antizyme 1 and 2 polyamine-regulated frameshifting sequences, respectively, were cloned into the SalI and BamHI sites of the p2Luc vector (U.S. Pat. No. 6,143,502) to produce plasmids p2Lucaz1 and p2Lucaz2. The shift site (TCCT), corresponding to UCCU in the corresponding mRNA, is present at nucleotides 55-58 of each of these sequences. […]
(§2) To determine the effectiveness of the role of sequences flanking the frameshift site in inducing frameshifting levels, dual luciferase constructs were made in which antizyme sequences preceding and following the antizyme 1 and 2 frameshift sites were deleted. […] As described above, these constructs were then transiently transfected into HEK293 cells grown in standard growth nedia or media with 2.5 mM DFMO, and frameshift levels were measured following the addition of exogenously added spermidine (1 mM).

[3] = system: antizyme 1 and 2 frameshifting sequences with downstream pseudoknot deleted; test: Dual luciferase frameshifting assay, downstream pseudoknot deletion constructs p2Lucaz1pkdel and p2Lucaz2pkdel; assay type: cell-based, human; details: 1 mM spermidine added to DFMO (2.5 mM) treated HEK293 cells
From the text: as §1, §2

HEK293 cells = test: Intracellular polyamine levels by HPLC analysis of whole cell lysates; assay type: cell-based, human
Experimental: Polyamine levels were also measured for comparison. Intracellular polyamine levels were determined by HPLC analysis of whole cell lysates. Cells (3×10^5) were grown in 6-well plates for 48 hours at 37° C. in an atmosphere of 5% CO2, either in the presence or absence of DFMO. Cells were then mock transfected as described above. […] Cells were allowed to grow for 12 hours, and 5×10^6 cells were harvested and washed three times with phosphate buffered saline.

[4] = system: antizyme 2 polyamine-regulated frameshifting sequence; test: Dual luciferase reporter assay of antizyme 2 +1 frameshifting (p2Lucaz2) in transfected cells; assay type: cell-based, human; details: for Effect on amount of frameshifting, p2Lucaz2: cultured mammalian cells, controls 2.5 mM DFMO
From the text: Referring now to FIG. 2, the construction of illustrative embodiments of the dual reporter assay constructs is depicted. These illustrative embodiments use the renilla and firefly luciferases as first and second reporters, respectively. The sequences referred to herein as SEQ ID NO:1 and SEQ ID NO:2, which comprise antizyme 1 and 2 polyamine-regulated frameshifting sequences, respectively, were cloned into the SalI and BamHI sites of the p2Luc vector (U.S. Pat. No. 6,143,502) to produce plasmids p2Lucaz1 and p2Lucaz2. The shift site (TCCT), corresponding to UCCU in the corresponding mRNA, is present at nucleotides 55-58 of each of these sequences. Constructs were also prepared with deletions of the upstream stimulatory sequences of the antizyme 1 polyamine-regulated frameshifting sequence (SEQ ID NO:3) and the antizyme 2 polyamine-regulated frameshifting sequence (SEQ ID NO:4), resulting in plasmids p2Lucaz1usdel and p2Lucaz2usdel. Other constructs were prepared with deletions of the downstream pseudoknot stimulatory sequences of the antizyme 1 polyamine-regulated frameshifting sequence (SEQ ID NO:5) and the antizyme 2 polyamine-regulated frameshifting sequence (SEQ ID NO:6), resulting in plasmids p2Lucaz1pkdel and p2Lucaz2pkdel. Zero frame (“0 frame”) controls for each construct were identical except that the first T of the stop codon following the shift site was deleted. […]
Cultured mammalian cells are transfected with the dual construct according to method well known in the art. Parallel cell lines are transfected with the +1 reading frame and 0 reading frame construct according to methods well known in the art. […] Cells are then lysed and the luciferase activity measured by light emission after injection of luminescence substrate, as is well known in the art. […] This provides a quantitative assay for measuring the polyamine-induced recoding. […]

[5] = system: antizyme 3 frameshifting sequence; test: Dual luciferase reporter assay with p2Luc containing the antizyme 3 frameshifting sequence; assay type: cell-based; details: cultured mammalian cells, controls 2.5 mM DFMO

For `NCCCNCCCCNCCCN` [Spermine, spermine], the “Fold Increase (antizyme vs control)” value (endogenous antizyme; 0.4 mM exogenous polyamine) was 1.2, the Antizyme (endogenous antizyme; 0.4 mM exogenous polyamine) was 2.6 ± 0.5 units/mg and the “Fold Increase (antizyme vs control)” value (endogenous antizyme; 0.8 mM exogenous polyamine) was 1.4. For the same compound, the Antizyme (endogenous antizyme; 0.8 mM exogenous polyamine) was 3.0 ± 0.6 units/mg, the Maximal frameshifting stimulation [1] was “approximately 40%” and the “Fold increase of antizyme 1 frameshifting upon polyamine addition to DFMO pre-treated cells” value [1] was about 10 fold.
In the case of `NCCCCN` [Putrescine, putrescine], the “Fold Increase (antizyme vs control)” value (endogenous antizyme; 2 mM exogenous polyamine) is reported as 1.5, the Antizyme (endogenous antizyme; 2 mM exogenous polyamine) is reported as 3.0 ± 0.7 units/mg and the Maximal frameshifting stimulation [1] is reported as “approximately 40%”. For the same compound, the “Fold increase of antizyme 1 frameshifting upon polyamine addition to DFMO pre-treated cells” value [1] was about 10 fold.
For `NCCCCNCCCN` [Spermidine, spermidine], the “Stimulation of frameshifting, upstream deletion constructs” value [2] was 5-6 fold, the “Fold Increase (antizyme vs control)” value (endogenous antizyme; 1 mM exogenous polyamine) was 1.1 and the Antizyme (endogenous antizyme; 1 mM exogenous polyamine) was 23 ± 0.2 units/mg. For the same compound, the “Fold Increase (antizyme vs control)” value (endogenous antizyme; 2 mM exogenous polyamine) was 1.6, the Antizyme (endogenous antizyme; 2 mM exogenous polyamine) was 3.4 units/mg and the Maximal frameshifting stimulation [1] was “approximately 40%”. For the same compound, the “Fold increase of antizyme 1 frameshifting upon polyamine addition to DFMO pre-treated cells” value [1] was about 10 fold, the “Stimulation of frameshifting, downstream (pseudoknot) deletion constructs” value [3] was “approximately 2 fold” and the “Increase of intracellular spermidine levels over control cells” value (HEK293 cells; 1 mM spermidine added to DFMO treated HEK293 cells) was 1.5 fold. The “Effect on intracellular putrescine and spermine levels” value (HEK293 cells; 1 mM spermidine added to DFMO treated or untreated HEK293 cells) was “restored putrescine and spermine levels to nearly that of control cells”, the “Increase of intracellular spermidine levels over control cells” value (HEK293 cells; 1 mM spermidine added to untreated (no DFMO) HEK293 cells) was 1.7 fold and the “Antizyme 2 frameshifting response compared with antizyme 1” value ([4]; HEK293, with or without DFMO, FIG. 4) was “showed a very similar response to polyamine depletion and addition”.
`NCCCCCN` [cadaverine] was tested, and the “Effect on amount of frameshifting, p2Lucaz1” value ([1]; 0-32 mM cadaverine, FIG. 7B) was “effective for significantly increasing the amount of frameshifting observed”, the “Effect on amount of frameshifting, p2Lucaz2” value ([4]; 0-32 mM cadaverine, FIG. 7B) was “effective for significantly increasing the amount of frameshifting observed” and the “Effect on amount of frameshifting, antizyme 3 frameshifting sequence” value ([5]; 0-32 mM cadaverine, FIG. 7B) was “no increase in frameshifting was observed”.
In the case of `N=C(N)NCCCCN` [agmatine], the “Effect on amount of frameshifting, p2Lucaz1” value ([1]; 0-16 mM agmatine, FIG. 7A) is reported as “significantly increased the amount of frameshifting observed”, the “Effect on amount of frameshifting, p2Lucaz2” value ([4]; 0-16 mM agmatine, FIG. 7A) is reported as “significantly increased the amount of frameshifting observed” and the “Effect on amount of frameshifting, antizyme 3 frameshifting sequence” value ([5]; 0-16 mM agmatine, FIG. 7A) is reported as “no increase in frameshifting was observed”.
